From patent EP2025678A1, “Pyrazolo[3,4-d]pyrimidine compounds and their use as modulators of protein kinase” (Oncalis AG, priority 2007, dated 2009) come the findings set out here.

Some results are limits rather than exact numbers.

The target in assay [1] is T1, human EphB4 (Homo sapiens, UniProt P54760).
T1 sequence (P54760 16-987): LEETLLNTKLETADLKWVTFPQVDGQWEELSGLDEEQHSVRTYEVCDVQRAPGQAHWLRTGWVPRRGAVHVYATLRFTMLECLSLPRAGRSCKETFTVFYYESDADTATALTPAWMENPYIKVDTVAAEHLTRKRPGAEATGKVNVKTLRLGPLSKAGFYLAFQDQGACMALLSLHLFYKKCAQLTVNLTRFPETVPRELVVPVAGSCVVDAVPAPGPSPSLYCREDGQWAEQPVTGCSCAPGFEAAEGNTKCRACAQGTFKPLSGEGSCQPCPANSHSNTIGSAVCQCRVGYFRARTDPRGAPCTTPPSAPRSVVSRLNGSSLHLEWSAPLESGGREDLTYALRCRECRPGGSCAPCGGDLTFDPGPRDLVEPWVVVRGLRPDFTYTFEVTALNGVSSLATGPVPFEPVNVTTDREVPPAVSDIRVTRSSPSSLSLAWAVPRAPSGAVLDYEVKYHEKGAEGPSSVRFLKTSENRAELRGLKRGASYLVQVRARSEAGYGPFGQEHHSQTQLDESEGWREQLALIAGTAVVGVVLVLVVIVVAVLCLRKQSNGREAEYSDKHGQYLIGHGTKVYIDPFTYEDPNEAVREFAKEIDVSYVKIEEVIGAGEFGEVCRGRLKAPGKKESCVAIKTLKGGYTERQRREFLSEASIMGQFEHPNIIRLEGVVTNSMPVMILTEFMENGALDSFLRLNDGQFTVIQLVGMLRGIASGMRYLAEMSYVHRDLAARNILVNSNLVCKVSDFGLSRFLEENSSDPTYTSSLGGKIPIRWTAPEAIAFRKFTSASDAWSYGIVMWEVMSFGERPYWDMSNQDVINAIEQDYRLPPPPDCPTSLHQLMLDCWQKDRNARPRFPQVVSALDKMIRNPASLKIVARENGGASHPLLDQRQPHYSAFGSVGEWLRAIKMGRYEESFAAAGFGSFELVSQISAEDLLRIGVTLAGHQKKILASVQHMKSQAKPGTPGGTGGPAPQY
Kind of assay: in vitro enzymatic kinase assay EphB4 (ADP Hunter assay kit). The format is biochemical. As to conditions: cell-free; ATP 300uM; poly (Glu4-Tyr) 800uM. As to the method:
EphB4 inhibition activity of compounds was measured in an in vitro enzymatic kinase assay using the ADP Hunter assay kit (DiscoveRx Corp.), which measures accumulation of ADP produced by the kinase enzyme activity. EphB4 kinase (2ug/mL) is preincubated with different concentrations of compounds for 15 minutes at room temperature in kinase buffer (HEPES 15mM, MgCl2 10mM, EDTA 0.5mM, NaCl 20mM, Tween-20 0.02%, pH 7.4). ATP (300uM) is added and the mixture is incubated for 30 minutes at room temperature for enzyme activation. The peptide substrate poly (Glu4-Tyr) 800uM is added and the mixture is incubated for 60 minutes at 30°C. An enzyme- coupled reaction produces a red-shifted fluorescent signal that is directly proportional to the amount of ADP in solution. Fluorescence emission is measured at 590nm with excitation at 535nm.

Assay [2] concerns the target T1, human EphB4. Kind of assay: Cellular autophosphorylation assay EphB4 (ELISA) in CHO-EphB4 cells. The format is cell-based. Also noted: stably transfected with myc-tagged full length human EphB4; expressed in transfected cells; host or cells: CHO (chinese hamster ovary). As to conditions: ephrinB2/Fc induced autophosphorylation. As to the method: CHO (chinese hamster ovary) cells were stably transfected with myc-tagged full length human EphB4. A cell line expressing EphB4 of which the phosphorylation was inducible with ephrinB2/Fc was identified and called CHO-EphB4. CHO-EphB4 cells were seeded into 96-well plates and cultured overnight in HAM-F12 medium supplemented with 10% fetal calf serum (FCS). Cells were washed once with PBS and different concentrations of compounds in HAM-F12 medium (final concentration of DMSO in the assay was 1%) were added. Cells were incubated at 37°C for 15 minutes. Ligand ephrinB2/Fc (R&D Systems, 1ug/mL final), which had been pre-clustered with anti-IgG Fc antibody (Jackson ImmunoResearch) for 45 minutes at room temperature, was added and cells were further incubated at 37°C for 45 minutes. Cells were lysed in 30uL lysis buffer per well (20mM Tris pH8, 150mM NaCl, 10% glycerol, 1% Triton X-100, 1mM Na3VO4, 1mM EDTA pH8, 1mM EGTA pH8, 1x protease inhibitor cocktail Sigma). ELISA 96-well plates (Nunc, Maxisorp) were coated with 100uL/well anti-c-myc antibody (Sigma) overnight at 4°C, blocked with 300uL/well 5% milk in TBS/0.005% Tween 20 (TBST) for 1 to 3 hours at room temperature, and incubated with 25uL/well cell lysate overnight at 4°C. ELISA plates were washed twice with TBST and incubated with 100uL/well antiphosphotyrosine HRP-coupled antibody (Upstate) diluted 1:1000 in 5% milk in TBST for 1.5 hour at room temperature and developed with 100uL/well BM BluePOD substrate (Roche). Absorbance was measured at 450nm.

Another assay addresses T2, EGFR (Homo sapiens, UniProt P00533).
T2 construct: expressed in transfected cells; host or cells: yeast
Kind of assay: yeast growth assay, specificity profiling, EGFR. The class given is cell-based. As to conditions: Table Y; legend not given. As to the method:
(§1) The yeast growth assay was performed as described in "Method for the identification and/or validation of receptor tyrosine kinase inhibitors" WO2005/040413, section "Modes for Carrying out the Invention", Experiment 1 and Experiment 2: Yeast cells carrying plasmids with the RTK of interest were grown in glucose containing medium (repressing expression). Cultures were diluted into galactose containing medium, which induces expression of the kinase. Expression of the kinase inhibits growth of the yeast cells, which allows for positive selection of kinase inhibitors restoring growth of cells.

A further assay has as its target T3, VEGFR-1 (Homo sapiens, UniProt P17948).
T3 construct: expressed in transfected cells; host or cells: yeast
Briefly: yeast growth assay, specificity profiling, VEGFR-1. As to conditions: Table Y; legend not given. The class given is cell-based. The method, then:
as §1

In another assay the target is T4, VEGFR-2 (Homo sapiens, UniProt P35968).
T4 construct: expressed in transfected cells; host or cells: yeast
Kind of assay: yeast growth assay, specificity profiling, VEGFR-2. As to conditions: Table Y; legend not given. The format is cell-based. As to the method: as §1

The target in another assay is T5, InsR (Homo sapiens, UniProt P06213).
T5 construct: expressed in transfected cells; host or cells: yeast
Briefly: yeast growth assay, specificity profiling, InsR. The class given is cell-based. As to conditions: Table Y; legend not given. As to the method: as §1

The target of another assay is T6, IGF1R (Homo sapiens, UniProt P08069).
T6 construct: expressed in transfected cells; host or cells: yeast
Kind of assay: yeast growth assay, specificity profiling, IGF1R. As to conditions: Table Y; legend not given. The format is cell-based. The method, then: as §1

The target in the next assay is T7, ErbB2 (Homo sapiens, UniProt P04626).
T7 construct: expressed in transfected cells; host or cells: yeast
Kind of assay: yeast growth assay, specificity profiling, ErbB2. The format is cell-based. As to conditions: Table Y; legend not given. The method, then: as §1

A further assay concerns the target T8, PDGFRb (Homo sapiens, UniProt P09619).
T8 construct: expressed in transfected cells; host or cells: yeast
Kind of assay: yeast growth assay, specificity profiling, PDGFRb. The class given is cell-based. As to conditions: Table Y; legend not given. As to the method: as §1

The target in a further assay is T9, c-Met (Homo sapiens, UniProt P08581).
T9 construct: expressed in transfected cells; host or cells: yeast
Kind of assay: yeast growth assay, specificity profiling, c-Met. The class given is cell-based. As to conditions: Table Y; legend not given. The method, then:
as §1

T8 sequence (P09619 33-1106): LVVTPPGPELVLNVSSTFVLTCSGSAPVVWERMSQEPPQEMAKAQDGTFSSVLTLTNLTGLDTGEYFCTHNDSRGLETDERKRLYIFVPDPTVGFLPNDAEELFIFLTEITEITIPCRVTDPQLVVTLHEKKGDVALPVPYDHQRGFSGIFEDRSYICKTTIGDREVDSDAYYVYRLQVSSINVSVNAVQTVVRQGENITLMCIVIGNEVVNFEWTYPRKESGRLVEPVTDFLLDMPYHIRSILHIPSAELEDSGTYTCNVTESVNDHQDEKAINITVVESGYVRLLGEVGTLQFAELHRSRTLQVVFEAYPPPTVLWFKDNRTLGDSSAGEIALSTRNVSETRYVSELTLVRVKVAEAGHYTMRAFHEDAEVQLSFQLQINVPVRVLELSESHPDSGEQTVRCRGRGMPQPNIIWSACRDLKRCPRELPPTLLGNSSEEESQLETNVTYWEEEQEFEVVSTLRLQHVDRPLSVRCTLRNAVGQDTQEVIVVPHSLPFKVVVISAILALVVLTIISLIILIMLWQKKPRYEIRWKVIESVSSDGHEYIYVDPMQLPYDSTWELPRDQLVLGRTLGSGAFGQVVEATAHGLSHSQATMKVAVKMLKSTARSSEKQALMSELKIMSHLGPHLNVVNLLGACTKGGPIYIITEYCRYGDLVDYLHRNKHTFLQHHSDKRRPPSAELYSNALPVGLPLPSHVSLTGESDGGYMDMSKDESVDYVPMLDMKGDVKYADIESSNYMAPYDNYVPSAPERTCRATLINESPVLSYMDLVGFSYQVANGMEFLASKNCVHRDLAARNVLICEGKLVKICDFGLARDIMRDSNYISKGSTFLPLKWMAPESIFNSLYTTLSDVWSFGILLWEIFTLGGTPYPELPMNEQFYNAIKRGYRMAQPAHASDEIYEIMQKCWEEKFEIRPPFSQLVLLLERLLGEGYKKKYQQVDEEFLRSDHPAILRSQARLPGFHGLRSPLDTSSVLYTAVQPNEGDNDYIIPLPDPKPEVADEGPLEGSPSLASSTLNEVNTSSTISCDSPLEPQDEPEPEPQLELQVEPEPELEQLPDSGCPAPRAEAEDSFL
T9 sequence (P08581 25-1390): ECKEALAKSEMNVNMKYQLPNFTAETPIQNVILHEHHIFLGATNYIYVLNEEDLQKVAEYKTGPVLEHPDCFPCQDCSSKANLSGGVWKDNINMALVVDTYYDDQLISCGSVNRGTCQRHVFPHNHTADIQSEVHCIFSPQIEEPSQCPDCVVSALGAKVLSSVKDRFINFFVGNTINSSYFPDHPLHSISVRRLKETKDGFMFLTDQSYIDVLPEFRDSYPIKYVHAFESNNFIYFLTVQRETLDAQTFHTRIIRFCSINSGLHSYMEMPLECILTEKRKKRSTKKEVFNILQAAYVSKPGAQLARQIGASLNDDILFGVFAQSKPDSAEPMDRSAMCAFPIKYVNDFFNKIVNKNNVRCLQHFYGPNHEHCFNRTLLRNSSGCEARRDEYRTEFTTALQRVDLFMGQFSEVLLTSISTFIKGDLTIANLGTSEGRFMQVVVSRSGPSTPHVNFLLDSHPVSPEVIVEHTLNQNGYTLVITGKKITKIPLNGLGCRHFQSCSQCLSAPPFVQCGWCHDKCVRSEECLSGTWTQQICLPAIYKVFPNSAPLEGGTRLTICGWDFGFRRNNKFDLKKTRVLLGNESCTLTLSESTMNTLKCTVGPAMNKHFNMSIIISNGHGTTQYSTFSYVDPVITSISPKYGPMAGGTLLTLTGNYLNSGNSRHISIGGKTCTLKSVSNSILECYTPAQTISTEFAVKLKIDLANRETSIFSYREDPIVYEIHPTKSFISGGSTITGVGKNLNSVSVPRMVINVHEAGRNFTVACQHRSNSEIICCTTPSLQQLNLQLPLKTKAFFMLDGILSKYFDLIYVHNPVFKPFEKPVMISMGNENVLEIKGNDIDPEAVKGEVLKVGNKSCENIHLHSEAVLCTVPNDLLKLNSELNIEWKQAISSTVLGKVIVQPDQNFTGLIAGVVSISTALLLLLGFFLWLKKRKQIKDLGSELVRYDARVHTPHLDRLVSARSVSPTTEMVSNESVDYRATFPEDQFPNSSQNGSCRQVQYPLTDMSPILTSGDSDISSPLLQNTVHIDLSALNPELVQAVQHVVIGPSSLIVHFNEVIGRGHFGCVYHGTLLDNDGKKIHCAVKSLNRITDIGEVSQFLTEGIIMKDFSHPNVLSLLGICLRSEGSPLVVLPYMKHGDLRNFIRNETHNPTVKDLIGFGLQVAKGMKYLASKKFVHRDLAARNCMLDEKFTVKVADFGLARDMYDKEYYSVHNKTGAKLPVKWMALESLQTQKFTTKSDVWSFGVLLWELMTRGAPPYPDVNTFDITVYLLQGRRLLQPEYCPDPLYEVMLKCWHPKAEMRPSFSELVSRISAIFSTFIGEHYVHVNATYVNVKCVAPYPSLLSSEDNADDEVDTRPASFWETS
T3 sequence (P17948 27-1338): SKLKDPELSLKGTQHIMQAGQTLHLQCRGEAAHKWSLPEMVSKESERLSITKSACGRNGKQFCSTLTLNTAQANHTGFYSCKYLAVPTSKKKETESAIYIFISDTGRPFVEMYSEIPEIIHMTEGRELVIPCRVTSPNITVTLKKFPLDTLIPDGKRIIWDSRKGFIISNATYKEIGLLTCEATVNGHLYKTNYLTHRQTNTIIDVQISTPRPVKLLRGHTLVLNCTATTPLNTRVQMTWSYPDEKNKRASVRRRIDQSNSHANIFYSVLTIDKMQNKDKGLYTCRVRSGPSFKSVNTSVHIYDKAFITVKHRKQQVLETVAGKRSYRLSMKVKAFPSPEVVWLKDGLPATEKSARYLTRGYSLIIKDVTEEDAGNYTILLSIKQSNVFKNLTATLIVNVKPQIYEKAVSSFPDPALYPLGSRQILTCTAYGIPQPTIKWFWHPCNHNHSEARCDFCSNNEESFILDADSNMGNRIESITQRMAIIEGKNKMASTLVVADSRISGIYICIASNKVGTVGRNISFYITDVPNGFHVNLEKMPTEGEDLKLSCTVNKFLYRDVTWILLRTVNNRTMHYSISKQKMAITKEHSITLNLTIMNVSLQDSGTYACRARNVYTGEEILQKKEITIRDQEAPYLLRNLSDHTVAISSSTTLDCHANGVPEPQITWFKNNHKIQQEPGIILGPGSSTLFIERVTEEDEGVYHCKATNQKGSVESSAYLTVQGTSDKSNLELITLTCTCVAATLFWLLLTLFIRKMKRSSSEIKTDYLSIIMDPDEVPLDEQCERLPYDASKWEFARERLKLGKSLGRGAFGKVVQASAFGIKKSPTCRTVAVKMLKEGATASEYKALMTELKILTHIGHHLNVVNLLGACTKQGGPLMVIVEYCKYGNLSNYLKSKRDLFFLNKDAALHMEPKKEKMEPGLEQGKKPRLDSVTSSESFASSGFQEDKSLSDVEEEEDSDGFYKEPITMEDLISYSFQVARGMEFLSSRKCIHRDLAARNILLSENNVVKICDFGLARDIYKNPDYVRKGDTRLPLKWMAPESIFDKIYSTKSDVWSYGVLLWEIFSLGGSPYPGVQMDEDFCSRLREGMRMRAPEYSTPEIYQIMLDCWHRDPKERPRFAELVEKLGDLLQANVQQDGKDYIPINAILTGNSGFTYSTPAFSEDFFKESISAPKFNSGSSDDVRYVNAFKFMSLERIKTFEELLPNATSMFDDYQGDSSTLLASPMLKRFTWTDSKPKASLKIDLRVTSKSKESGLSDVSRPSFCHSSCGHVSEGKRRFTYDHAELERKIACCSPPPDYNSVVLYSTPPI
T7 sequence (P04626 23-1255): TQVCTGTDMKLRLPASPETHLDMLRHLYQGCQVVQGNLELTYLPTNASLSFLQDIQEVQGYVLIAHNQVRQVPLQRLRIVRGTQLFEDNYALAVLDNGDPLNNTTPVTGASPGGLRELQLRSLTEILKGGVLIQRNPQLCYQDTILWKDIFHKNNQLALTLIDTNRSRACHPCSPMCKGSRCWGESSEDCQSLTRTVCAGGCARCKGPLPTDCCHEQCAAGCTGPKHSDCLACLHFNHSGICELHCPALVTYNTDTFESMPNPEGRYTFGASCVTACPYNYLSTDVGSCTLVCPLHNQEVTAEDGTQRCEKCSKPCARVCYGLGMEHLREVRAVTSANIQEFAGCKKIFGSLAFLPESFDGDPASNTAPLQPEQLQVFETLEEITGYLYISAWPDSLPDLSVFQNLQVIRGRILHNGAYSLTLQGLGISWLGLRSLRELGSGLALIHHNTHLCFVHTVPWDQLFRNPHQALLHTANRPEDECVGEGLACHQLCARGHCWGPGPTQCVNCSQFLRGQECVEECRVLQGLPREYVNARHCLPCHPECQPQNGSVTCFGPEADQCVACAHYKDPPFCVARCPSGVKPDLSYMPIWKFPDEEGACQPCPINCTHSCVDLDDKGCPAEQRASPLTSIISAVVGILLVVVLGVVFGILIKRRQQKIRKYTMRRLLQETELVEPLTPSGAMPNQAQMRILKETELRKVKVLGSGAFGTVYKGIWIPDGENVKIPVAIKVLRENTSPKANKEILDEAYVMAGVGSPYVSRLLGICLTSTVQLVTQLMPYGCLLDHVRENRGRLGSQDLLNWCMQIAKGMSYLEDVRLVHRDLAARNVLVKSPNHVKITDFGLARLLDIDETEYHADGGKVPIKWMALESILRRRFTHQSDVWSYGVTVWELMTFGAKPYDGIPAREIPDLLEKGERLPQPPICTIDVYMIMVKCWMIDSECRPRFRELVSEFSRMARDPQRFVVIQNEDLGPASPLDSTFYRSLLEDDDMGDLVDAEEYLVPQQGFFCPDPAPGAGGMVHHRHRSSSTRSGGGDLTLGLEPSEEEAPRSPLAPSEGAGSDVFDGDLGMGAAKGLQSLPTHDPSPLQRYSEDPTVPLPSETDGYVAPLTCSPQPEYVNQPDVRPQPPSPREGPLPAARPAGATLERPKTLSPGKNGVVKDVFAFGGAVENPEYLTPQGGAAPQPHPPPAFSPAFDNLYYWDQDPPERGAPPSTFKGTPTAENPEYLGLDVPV

Take `CCCNc1nc(Nc2ccccc2C)c2cnn(C)c2n1`: the IC50 at human EphB4 [1] is < 1 µM.

Regarding `CNc1nc(Nc2ccc(Cl)cc2C)c2cnn(C)c2n1` [drawing 56], the IC50 on human EphB4 [1] is 1 to 10 µM; on human EphB4 [2] it was > 10 µM.

In the case of `Cc1ccccc1Nc1nc(NCc2ccccc2Cl)nc2c1cnn2C`, the 50% inhibitory concentration (IC50) on human EphB4 [1] is 1 to 10 µM; on human EphB4 [2], < 1 µM.

Regarding `CCCCNc1nc(Nc2ccccc2C)c2cnn(C)c2n1`, the IC50 at human EphB4 [1] and against human EphB4 [2] was < 1 µM each time.

`Cc1ccccc1Nc1nc(N2CCOCC2)nc2c1cnn2C` gave a concentration for half-maximal inhibition (IC50) at human EphB4 [1] of 1 to 10 µM.

As for `CNc1nc(Nc2ccc(Cl)cc2C)c2cnn(C)c2n1` [[drawing]], the “Specificity profiling in the yeast growth assay: EGFR” value at EGFR turned out to be 0. Moreover, the “Specificity profiling in the yeast growth assay: VEGFR-1” value on VEGFR-1 is 0. Also, the “Specificity profiling in the yeast growth assay: VEGFR-2” value at VEGFR-2 stood at 0. In addition, the “Specificity profiling in the yeast growth assay: InsR” value at InsR is on record as 0. On IGF1R, the “Specificity profiling in the yeast growth assay: IGF1R” value is 0. Further, on ErbB2, the “Specificity profiling in the yeast growth assay: ErbB2” value was determined as 0. The “Specificity profiling in the yeast growth assay: PDGFRb” value on PDGFRb came to 0. Besides, the “Specificity profiling in the yeast growth assay: c-Met” value on c-Met stood at 0.

With `CCCNc1nc(Nc2ccc(Cl)cc2C)c2cnn(C)c2n1`, on human EphB4 [1], the IC50 was in the range of 1 to 10 µM.

`Cc1ccccc1Nc1nc(N(C)C)nc2c1cnn2C`: at human EphB4 [1], the IC50 lay in the range of 1 to 10 µM.

For `Cc1ccccc1Nc1nc(NC2CCCC2)nc2c1cnn2C`, on human EphB4 [1], the IC50 was < 1 µM.

Take `CCNc1nc(Nc2ccccc2C)c2cnn(C)c2n1`: the IC50 against human EphB4 [1] and against human EphB4 [2] was < 1 µM each time.

As to `CCN(CC)CCNc1nc(Nc2ccccc2C)c2cnn(C)c2n1`, the IC50 against human EphB4 [1] was < 1 µM.

On to `Cc1ccccc1Nc1nc(N2CCCC2)nc2c1cnn2C`, for which, on human EphB4 [1], the IC50 was in the range of 1 to 10 µM.

As to `COCCNc1nc(Nc2ccccc2C)c2cnn(C)c2n1`, the IC50 at human EphB4 [1] is < 1 µM.

`CNc1nc(Nc2ccccc2C)c2cnn(C)c2n1`: at human EphB4 [1], the IC50 was < 1 µM.

Regarding `CCNc1nc(Nc2ccc(C)cc2C)c2cnn(C)c2n1`, the IC50 on human EphB4 [1] is 1 to 10 µM.

As for `Cc1ccc(Nc2nc(NCc3ccco3)nc3c2cnn3C)c(C)c1`, the IC50 against human EphB4 [1] lay in the range of 1 to 10 µM.

`Cc1ccccc1Nc1nc(N2CCN(C(=O)c3ccco3)CC2)nc2c1cnn2C` returned an IC50 on human EphB4 [1] of 1 to 10 µM.

Turning to `Cc1cc(Cl)ccc1Nc1nc(NC2CCCC2)nc2c1cnn2C`, the IC50 against human EphB4 [1] and at human EphB4 [2] was 1 to 10 µM in each case.

Regarding `Cc1ccccc1Nc1nc(NCc2ccco2)nc2c1cnn2C`, the IC50 against human EphB4 [1] was < 1 µM; against human EphB4 [2] it was 1 to 10 µM.

In turn, `Cc1ccccc1Nc1nc(Nc2ccc(F)cc2)nc2c1cnn2C` showed an IC50 at human EphB4 [1] of 1 to 10 µM.

Turning to `CNc1nc(Nc2ccc(C)cc2C)c2cnn(C)c2n1`, the IC50 against human EphB4 [1] lay within 1 to 10 µM.

Turning to `COCCCNc1nc(Nc2ccccc2C)c2cnn(C)c2n1`, the IC50 on human EphB4 [1] was < 1 µM.

For the compound `C=CCNc1nc(Nc2ccccc2C)c2cnn(C)c2n1`, on human EphB4 [1], the IC50 was < 1 µM.

Consider `Cc1ccccc1Nc1nc(NCc2ccccc2)nc2c1cnn2C`, for which the IC50 against human EphB4 [1] is 1 to 10 µM.

Take `Cc1ccccc1Nc1nc(Nc2ccccc2)nc2c1cnn2C`: the half-inhibitory concentration (IC50) against human EphB4 [1] lay in the range of 1 to 10 µM.
